Data set [1] deals with U-937. Description: Growth inhibition of human U937 cells at 50 uM after 72 hrs by MTT assay. It counts as functional. The following applies: U-937, 72 h, read-out: GI. On the technique in general: Formazan colour is commonly taken as a measure of viable cells.
The test system of data set [2] is K562. Description: Growth inhibition of human K562 cells at 50 uM after 72 hrs by MTT assay. As to conditions: K562, 72 h, read-out: GI. Type of data set: functional.
The target of data set [3] is DNA (cytosine-5)-methyltransferase 1 (Homo sapiens) (UniProt P26358). Description: Inhibition of DNMT1 (unknown origin) at 100 uM using poly(dI-dC).poly(dI-dC) as substrate preincubated for 15 mins followed by substrate/[3H]-SAM addition measured after 120 mins by liquid scintillation counting analysis.
Data set [4] deals with DNMT3A2/3L complex (Homo sapiens) (UniProt Q9Y6K1+Q9UJW3). Kind of data set: Inhibition of DNMT3A/3L (unknown origin) at 100 uM using biotinylated DNA oligonucleotides as substrate preincubated for 15 mins followed by substrate/[3H]-SAM addition measured after 4 hrs by liquid scintillation counting analysis. It counts as protein-complex assay.
Data set [5] deals with DNMT3B-DNMT3L complex (Homo sapiens) (UniProt Q9UBC3+Q9UJW3). Description: Inhibition of DNMT3B/3L (unknown origin) at 100 uM using biotinylated DNA oligonucleotides as substrate preincubated for 15 mins followed by substrate/[3H]-SAM addition measured after 4 hrs by liquid scintillation counting analysis. Type of data set: protein-complex assay.
The target in data set [6] is Histone deacetylase 1 (Homo sapiens, UniProt Q13547). Kind of data set: Inhibition of HDAC1 (unknown origin) preincubated for 15 mins followed by substrate addition measured after 60 mins by fluorescence assay.
For data set [7], the target named is T1, Protein deacetylase HDAC6 (Homo sapiens, UniProt Q9UBN7).
T1 sequence (Q9UBN7 whole entry): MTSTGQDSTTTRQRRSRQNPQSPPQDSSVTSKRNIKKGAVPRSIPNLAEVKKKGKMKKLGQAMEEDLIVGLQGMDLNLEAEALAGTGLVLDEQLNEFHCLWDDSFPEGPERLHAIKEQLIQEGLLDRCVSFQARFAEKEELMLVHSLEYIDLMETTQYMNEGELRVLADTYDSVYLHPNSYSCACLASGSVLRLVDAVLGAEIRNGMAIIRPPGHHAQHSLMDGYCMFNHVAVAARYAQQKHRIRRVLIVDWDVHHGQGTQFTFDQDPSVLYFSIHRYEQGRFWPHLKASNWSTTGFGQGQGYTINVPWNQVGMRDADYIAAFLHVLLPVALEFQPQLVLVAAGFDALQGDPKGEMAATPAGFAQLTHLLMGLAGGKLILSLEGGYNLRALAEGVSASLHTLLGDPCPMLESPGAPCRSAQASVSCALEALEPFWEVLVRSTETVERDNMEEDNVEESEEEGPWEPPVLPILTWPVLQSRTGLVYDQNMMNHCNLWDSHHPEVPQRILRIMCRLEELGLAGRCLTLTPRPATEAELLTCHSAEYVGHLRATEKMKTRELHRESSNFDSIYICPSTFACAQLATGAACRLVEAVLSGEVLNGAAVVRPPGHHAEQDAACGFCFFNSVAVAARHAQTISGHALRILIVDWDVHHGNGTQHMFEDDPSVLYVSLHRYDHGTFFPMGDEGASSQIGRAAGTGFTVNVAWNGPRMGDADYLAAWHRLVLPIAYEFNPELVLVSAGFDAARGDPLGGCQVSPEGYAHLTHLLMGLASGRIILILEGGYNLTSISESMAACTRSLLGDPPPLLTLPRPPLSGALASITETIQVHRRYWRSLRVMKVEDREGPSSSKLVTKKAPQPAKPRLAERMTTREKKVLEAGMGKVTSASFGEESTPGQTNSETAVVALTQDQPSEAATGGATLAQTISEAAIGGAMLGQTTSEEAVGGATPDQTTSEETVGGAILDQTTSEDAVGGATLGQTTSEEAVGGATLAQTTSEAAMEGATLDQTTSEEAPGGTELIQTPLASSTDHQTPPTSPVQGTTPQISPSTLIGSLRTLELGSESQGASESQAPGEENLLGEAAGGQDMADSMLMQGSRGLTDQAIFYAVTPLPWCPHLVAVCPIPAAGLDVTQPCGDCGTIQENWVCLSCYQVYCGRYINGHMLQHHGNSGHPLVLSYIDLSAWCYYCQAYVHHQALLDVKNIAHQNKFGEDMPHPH
Kind of data set: Inhibition of HDAC6 (unknown origin) preincubated for 15 mins followed by substrate addition measured after 60 mins by fluorescence assay.

For data set [8], the system named is K562. Description: Antiproliferative activity against human K562 cells after 72 hrs by MTT assay. As to conditions: K562, 72 h. It counts as functional, cell-based.
For data set [9], the system named is U-937. Kind of data set: Antiproliferative activity against human U937 cells after 72 hrs by MTT assay. It counts as functional, cell-based. As to conditions: U-937, 72 h.
For data set [10], the system named is U-937. Kind of data set: Induction of apoptosis in human U937 cells assessed as necrotic cells at 2.5 uM after 48 hrs by Annexin V-FITC/PI staining based flow cytometry (reference value: 0%). Type of data set: functional. In general terms: A flow cytometer gives signals particle by particle.
The species named for data set [11] is Homo sapiens. Kind of data set: Inhibition of HDAC in human U937 cells assessed as induction of histone H3K9 acetylation after 12 hrs by Western blot analysis. It counts as cell-based.
The species entered for data set [12] is Homo sapiens. Kind of data set: Inhibition of HDAC in human U937 cells assessed as induction of histone H4K8 acetylation after 12 hrs by Western blot analysis. Type of data set: cell-based.
Data set [13] has as its target DNA (cytosine-5)-methyltransferase 1 (Homo sapiens) (UniProt P26358). Description: Inhibition of DNMT1 in human U937 cells assessed as increase in P16INK4A expression level at 1 to 5 uM after 36 hrs by Western blot analysis. It counts as cell-based. (A western blot detects proteins with antibodies after separation by electrophoresis.)
For data set [14], the species on record is Homo sapiens. Kind of data set: Inhibition of DNMT in human U937 cells assessed as induction of P16 CpG islands demethylation at 1 to 2.5 uM after 36 hrs by PCR analysis. Type of data set: cell-based.
Data set [15] deals with U-937. Description: Induction of apoptosis in human U937 cells assessed as increase in cleaved caspase-3 level at 1 to 5 uM after 36 hrs by Western blot analysis. Type of data set: functional, cell-based.
Data set [16] concerns U-937. Kind of data set: Induction of apoptosis in human U937 cells assessed as increase in cleaved PARP expression at 1 to 5 uM after 36 hrs by Western blot analysis. It counts as functional, cell-based.
Data set [17] concerns U-937. Description: Induction of apoptosis in human U937 cells assessed as increase in PARP expression at 1 to 5 uM after 36 hrs by Western blot analysis. Type of data set: functional, cell-based.
Data set [18] concerns U-937. Description: Induction of apoptosis in human U937 cells assessed as viable cells at 2.5 uM after 48 hrs by Annexin V-FITC/PI staining based flow cytometry (reference value: 99.4%). It counts as functional. The following applies: U-937, 48 h, read-out: Activity.
Data set [19] concerns U-937. Kind of data set: Induction of apoptosis in human U937 cells assessed as early apoptotic cells at 2.5 uM after 48 hrs by Annexin V-FITC/PI staining based flow cytometry (reference value: 0.162%). Type of data set: functional.
Data set [20] deals with U-937. Description: Induction of apoptosis in human U937 cells assessed as late apoptotic cells at 2.5 uM after 48 hrs by Annexin V-FITC/PI staining based flow cytometry (reference value: 0.438%). Type of data set: functional.
In data set [21] the test system is U-937. Description: Induction of apoptosis in human U937 cells assessed as viable cells at 5 uM after 48 hrs by Annexin V-FITC/PI staining based flow cytometry (reference value: 99.4%). It counts as functional. As to conditions: U-937, 48 h, read-out: Activity.
For data set [22], the system named is U-937. Description: Induction of apoptosis in human U937 cells assessed as early apoptotic cells at 5 uM after 48 hrs by Annexin V-FITC/PI staining based flow cytometry (reference value: 0.162%). Type of data set: functional.
Data set [23] relates to U-937. Kind of data set: Induction of apoptosis in human U937 cells assessed as late apoptotic cells at 5 uM after 48 hrs by Annexin V-FITC/PI staining based flow cytometry (reference value: 0.438%). Type of data set: functional.
The subject of data set [24] is U-937. Description: Induction of apoptosis in human U937 cells assessed as necrotic cells at 5 uM after 48 hrs by Annexin V-FITC/PI staining based flow cytometry (reference value: 0%). Type of data set: functional.
Data set [25] concerns U-937. Kind of data set: Induction of apoptosis in human U937 cells assessed as viable cells at 10 uM after 48 hrs by Annexin V-FITC/PI staining based flow cytometry (reference value: 99.4%). Type of data set: functional. The following applies: U-937, 48 h, read-out: Activity.
Data set [26] deals with U-937. Kind of data set: Induction of apoptosis in human U937 cells assessed as early apoptotic cells at 10 uM after 48 hrs by Annexin V-FITC/PI staining based flow cytometry (reference value: 0.162%). Type of data set: functional.
Data set [27] concerns U-937. Description: Induction of apoptosis in human U937 cells assessed as late apoptotic cells at 10 uM after 48 hrs by Annexin V-FITC/PI staining based flow cytometry (reference value: 0.438%). Type of data set: functional.
In data set [28] the test system is U-937. Description: Induction of apoptosis in human U937 cells assessed as necrotic cells at 10 uM after 48 hrs by Annexin V-FITC/PI staining based flow cytometry (reference value: 0%). Type of data set: functional.
In data set [29] the test system is U-937. Kind of data set: Induction of apoptosis in human U937 cells assessed as cell death after 48 hrs by Annexin V-FITC/PI staining based flow cytometry. It counts as functional.
Data set [30] has as its system Salmonella typhimurium. Description: Genotoxicity in Salmonella typhimurium TA97 at 50 times IC50 by Ames test. Type of data set: toxicity. As to conditions: salmonella enterica subsp. enterica serovar typhimurium.
Data set [31] has as its system Salmonella typhimurium. Kind of data set: Genotoxicity in Salmonella typhimurium TA98 at 50 times IC50 by Ames test. It counts as toxicity. The following applies: salmonella enterica subsp. enterica serovar typhimurium.
Data set [32] deals with Salmonella typhimurium. Kind of data set: Genotoxicity in Salmonella typhimurium TA102 at 50 times IC50 by Ames test. Type of data set: toxicity. As to conditions: salmonella enterica subsp. enterica serovar typhimurium.
Data set [33] relates to Salmonella typhimurium. Description: Genotoxicity in Salmonella typhimurium TA1535 at 50 times IC50 by Ames test. It counts as toxicity. As to conditions: salmonella enterica subsp. enterica serovar typhimurium.

Calls of active or inactive are those of the source. The rule behind the calls is not given here.

Chain of DNA (cytosine-5)-methyltransferase 1 (Homo sapiens) (P26358 whole entry): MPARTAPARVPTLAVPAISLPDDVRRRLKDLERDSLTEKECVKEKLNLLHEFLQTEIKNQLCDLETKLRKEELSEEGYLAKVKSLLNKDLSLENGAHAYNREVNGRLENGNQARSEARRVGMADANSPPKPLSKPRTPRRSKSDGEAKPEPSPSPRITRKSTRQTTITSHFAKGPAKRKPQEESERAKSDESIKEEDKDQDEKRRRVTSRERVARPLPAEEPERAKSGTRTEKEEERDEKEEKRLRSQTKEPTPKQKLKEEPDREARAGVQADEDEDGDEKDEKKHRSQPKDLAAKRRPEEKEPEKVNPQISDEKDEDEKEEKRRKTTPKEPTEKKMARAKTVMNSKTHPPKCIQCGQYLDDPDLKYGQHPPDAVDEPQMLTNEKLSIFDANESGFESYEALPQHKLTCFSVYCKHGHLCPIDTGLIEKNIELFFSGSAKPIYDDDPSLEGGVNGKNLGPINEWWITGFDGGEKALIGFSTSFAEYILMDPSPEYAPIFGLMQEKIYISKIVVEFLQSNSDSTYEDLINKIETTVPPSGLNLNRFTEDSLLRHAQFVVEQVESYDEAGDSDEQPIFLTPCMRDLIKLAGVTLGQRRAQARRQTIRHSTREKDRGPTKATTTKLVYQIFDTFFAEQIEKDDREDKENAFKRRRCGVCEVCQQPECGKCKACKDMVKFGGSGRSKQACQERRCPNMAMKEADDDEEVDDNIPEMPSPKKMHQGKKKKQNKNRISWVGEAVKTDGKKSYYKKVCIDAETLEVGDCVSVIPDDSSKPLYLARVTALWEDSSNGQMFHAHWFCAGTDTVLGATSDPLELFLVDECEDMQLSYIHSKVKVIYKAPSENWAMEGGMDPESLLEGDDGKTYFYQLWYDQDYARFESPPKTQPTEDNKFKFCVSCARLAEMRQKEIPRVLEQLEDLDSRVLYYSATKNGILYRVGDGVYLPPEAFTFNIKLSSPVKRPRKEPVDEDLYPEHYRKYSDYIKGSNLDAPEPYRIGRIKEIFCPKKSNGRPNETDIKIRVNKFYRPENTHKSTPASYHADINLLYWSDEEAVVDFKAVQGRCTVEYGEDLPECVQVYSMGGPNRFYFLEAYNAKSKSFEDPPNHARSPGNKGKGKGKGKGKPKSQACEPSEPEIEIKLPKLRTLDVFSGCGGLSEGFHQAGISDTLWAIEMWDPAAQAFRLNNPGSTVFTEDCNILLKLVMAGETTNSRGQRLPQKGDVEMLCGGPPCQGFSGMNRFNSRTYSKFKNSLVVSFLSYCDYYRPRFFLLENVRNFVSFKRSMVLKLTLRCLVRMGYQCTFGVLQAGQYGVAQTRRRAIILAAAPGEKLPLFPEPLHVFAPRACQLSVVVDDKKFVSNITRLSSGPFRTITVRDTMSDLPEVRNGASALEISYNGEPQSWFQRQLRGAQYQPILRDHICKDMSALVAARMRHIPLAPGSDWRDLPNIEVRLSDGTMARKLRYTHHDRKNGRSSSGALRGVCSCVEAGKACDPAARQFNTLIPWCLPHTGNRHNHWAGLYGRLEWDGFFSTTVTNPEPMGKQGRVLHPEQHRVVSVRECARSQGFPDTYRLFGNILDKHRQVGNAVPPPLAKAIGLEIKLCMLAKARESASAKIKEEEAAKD
Chain of DNMT3B-DNMT3L complex (Homo sapiens) (Q9UJW3 whole entry, looked up, other chains not shown): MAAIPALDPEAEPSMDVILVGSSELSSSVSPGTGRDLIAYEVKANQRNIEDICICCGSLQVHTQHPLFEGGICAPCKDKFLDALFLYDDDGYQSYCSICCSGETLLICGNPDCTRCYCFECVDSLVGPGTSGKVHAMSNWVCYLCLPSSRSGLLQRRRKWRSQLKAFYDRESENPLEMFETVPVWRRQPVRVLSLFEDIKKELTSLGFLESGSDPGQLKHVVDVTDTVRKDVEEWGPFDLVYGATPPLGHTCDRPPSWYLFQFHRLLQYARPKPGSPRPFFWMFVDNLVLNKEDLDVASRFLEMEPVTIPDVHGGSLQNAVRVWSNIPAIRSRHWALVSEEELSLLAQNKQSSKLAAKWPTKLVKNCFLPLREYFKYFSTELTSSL
Chain of DNMT3A2/3L complex (Homo sapiens) (Q9UJW3 whole entry, looked up): as the sequence (Q9UJW3 whole entry, looked up, other chains not shown) above
Chain of DNMT3A2/3L complex (Homo sapiens) (Q9Y6K1 whole entry, looked up): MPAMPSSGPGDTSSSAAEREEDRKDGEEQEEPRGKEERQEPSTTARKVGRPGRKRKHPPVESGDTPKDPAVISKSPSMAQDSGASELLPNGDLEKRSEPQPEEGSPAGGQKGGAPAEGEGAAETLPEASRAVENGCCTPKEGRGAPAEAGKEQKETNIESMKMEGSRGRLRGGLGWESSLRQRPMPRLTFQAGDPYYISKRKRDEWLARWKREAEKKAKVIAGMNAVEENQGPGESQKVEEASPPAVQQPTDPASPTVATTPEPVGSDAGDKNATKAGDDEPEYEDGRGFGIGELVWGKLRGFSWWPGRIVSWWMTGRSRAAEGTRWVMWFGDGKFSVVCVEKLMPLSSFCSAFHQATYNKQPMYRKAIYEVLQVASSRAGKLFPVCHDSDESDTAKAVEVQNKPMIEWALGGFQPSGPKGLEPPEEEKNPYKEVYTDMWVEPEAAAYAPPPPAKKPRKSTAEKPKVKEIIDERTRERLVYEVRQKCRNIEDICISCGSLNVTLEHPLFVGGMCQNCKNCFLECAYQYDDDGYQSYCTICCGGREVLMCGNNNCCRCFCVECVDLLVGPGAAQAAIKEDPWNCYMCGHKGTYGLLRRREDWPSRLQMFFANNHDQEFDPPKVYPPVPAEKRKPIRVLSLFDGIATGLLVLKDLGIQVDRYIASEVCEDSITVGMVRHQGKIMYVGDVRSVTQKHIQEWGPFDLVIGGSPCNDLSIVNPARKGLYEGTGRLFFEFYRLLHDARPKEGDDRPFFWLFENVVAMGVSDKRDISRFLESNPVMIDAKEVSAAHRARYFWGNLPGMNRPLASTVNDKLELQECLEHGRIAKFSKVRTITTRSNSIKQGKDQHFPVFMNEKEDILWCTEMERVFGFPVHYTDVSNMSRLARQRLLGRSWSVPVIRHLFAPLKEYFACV
Chain of Histone deacetylase 1 (Q13547 whole entry): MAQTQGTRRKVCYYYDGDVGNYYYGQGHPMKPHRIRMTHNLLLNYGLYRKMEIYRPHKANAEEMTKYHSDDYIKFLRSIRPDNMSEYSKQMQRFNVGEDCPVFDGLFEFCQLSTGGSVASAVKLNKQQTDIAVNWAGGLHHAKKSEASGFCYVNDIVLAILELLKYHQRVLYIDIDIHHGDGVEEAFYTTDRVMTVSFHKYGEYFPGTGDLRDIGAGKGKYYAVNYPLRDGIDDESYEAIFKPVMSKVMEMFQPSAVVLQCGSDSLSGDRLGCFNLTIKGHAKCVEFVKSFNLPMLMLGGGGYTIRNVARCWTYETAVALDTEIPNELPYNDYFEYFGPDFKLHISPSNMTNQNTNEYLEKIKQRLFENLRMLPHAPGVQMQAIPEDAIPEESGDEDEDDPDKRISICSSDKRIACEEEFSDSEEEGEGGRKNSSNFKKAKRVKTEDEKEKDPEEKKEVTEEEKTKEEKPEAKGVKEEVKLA

`COc1ccc(Cl)cc1C(=O)NCCc1ccc(CCC(=O)O)cc1`: the inhibition of growth at 50 µM in data set [1] is 15%; in data set [2] it was 20%. Besides, the values for the inhibition in data set [3], in data set [4] and in [5] were 34 to 34.1%, 42% and 6.11%, respectively.

Regarding `O=C(/C=C/c1ccc(CCNC(=O)c2cc(C(F)(F)F)ccc2Cl)cc1)NO`, the inhibition (usually the change of the read-out against control, counted positive when it falls) in data set [3] is 69.9 to 70%; in data set [4] it was 23 to 23.4%; in data set [5], 48 to 48.5%; in data set [11] it was “Dose-dependent effect”; in [12] it was “Dose-dependent effect”. Moreover, the IC50 (as a rule, the midpoint of a concentration-inhibition curve) in [6] is 56.8 nM; in data set [7], 17.4 nM; in [8], 2850 nM; in data set [9], 1060 nM. In addition, the Activity in data set [10] is 0.452%; in [19] it was 12.9%; in data set [20] it was 30.7%; in data set [22], 48.2%; in [23] it was 50.7%; in [24] it was 0.384%. Moreover, the Activity in [26] is 30.1%; in data set [27], 68.3%; in data set [28] it was 0.846%; in data set [29], “Dose-dependent effect”; in data set [30], “Non-Toxic”; in [31], “Non-Toxic”. Moreover, the Activity result in data set [32] and in [33] was “Non-Toxic” throughout. In addition, the inhibition result in data set [13] and in [14] was “Active” in each case. Moreover, the result in data set [15], in [16] and in data set [17] was Active. For the same compound, in data set [18], the viability at 2.5 µM was 56%. For the same compound, in [21], the viability at 5 µM came to 0.725%. Also, the viability at 10 µM in data set [25] came out at 0.784%.

The values above are taken from ChEMBL document CHEMBL4033641, “Design, synthesis and anticancer potential of NSC-319745 hydroxamic acid derivatives as DNMT and HDAC inhibitors” (Eur J Med Chem, 2017).
